Test results reported in patent publication US8680159B2, “Bradykinin 1 receptor modulating compounds” (Gruenenthal GmbH, priority 2010, dated 2014).

Assays:
[1] = biological target: T1, human B1R receptor (CHO K1 cells stably transfected with the human B1R gene) (Homo sapiens, UniProt P46663); assay: Functional study on the bradykinin receptor 1 (B1R), Ca2+ fluorescence (Fluo-4) FLIPR/Novostar assay, hB1R cells; type: cell-based; conditions: CHO-K1, read-out: % Inhibition (h-B1R) at 10 μM
T1 construct: expressed in transfected cells; host or cells: CHO K1 cells (Chinese hamster ovary), stably transfected
T1 sequence (P46663 1-353): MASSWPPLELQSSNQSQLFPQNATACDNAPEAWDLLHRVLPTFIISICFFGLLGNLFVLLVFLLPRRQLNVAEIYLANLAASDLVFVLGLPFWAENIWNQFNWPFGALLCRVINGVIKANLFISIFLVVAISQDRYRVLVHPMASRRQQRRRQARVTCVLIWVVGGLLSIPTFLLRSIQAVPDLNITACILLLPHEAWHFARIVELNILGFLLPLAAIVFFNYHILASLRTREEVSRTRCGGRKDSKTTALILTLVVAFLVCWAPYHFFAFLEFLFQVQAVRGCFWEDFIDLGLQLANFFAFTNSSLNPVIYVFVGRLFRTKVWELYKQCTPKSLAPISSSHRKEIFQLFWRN
Outline: (§1)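 Test compounds (10 μM) were added first and the Ca2+ rise was scored as % activation against Lys-Des-Arg9-bradykinin (≥50 nM, human) or Des-Arg9-bradykinin (≥1 μM, rat). After 6-20 min, the matching agonist was given at its EC80, and % inhibition relative to maximal achievable inhibition was calculated.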

[2] = biological target: T2, B1R receptor of the rat (CHO K1 cells stably transfected with the B1R gene of the rat) (Rattus norvegicus, UniProt P97583); assay: Functional study on the bradykinin receptor 1 (B1R), Ca2+ fluorescence (Fluo-4) FLIPR/Novostar assay, rB1R cells; type: cell-based; conditions: for inhibition at 10 µM: CHO-K1, 10 μM, read-out: % Inhibition (r-B1R) at 10 μM
T2 construct: expressed in transfected cells; host or cells: CHO K1 cells (Chinese hamster ovary), stably transfected
T2 sequence (P97583 1-337): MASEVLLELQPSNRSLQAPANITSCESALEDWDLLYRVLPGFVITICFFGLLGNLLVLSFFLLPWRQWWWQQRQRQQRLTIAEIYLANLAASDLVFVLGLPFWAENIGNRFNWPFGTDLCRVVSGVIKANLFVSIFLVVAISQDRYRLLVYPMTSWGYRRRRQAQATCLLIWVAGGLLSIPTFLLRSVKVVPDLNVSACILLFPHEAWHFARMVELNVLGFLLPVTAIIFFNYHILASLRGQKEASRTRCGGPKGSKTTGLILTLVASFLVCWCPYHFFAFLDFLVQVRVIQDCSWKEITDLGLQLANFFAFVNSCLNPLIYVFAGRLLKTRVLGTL
Outline: as §1

inhibition at 10 µM [1] [%]	inhibition at 10 µM [2] [%]	% Inhibition (r-B1R) at 10 μM [2] [%]	SMILES
99	102		CN(C(=O)c1ccc2c(c1)C(NC(=O)CCC1CCCC1)CC2(C)C)C1CCN(c2ccncc2)CC1 (stereo not shown) [CC_H-18, 3-(3-Cyclopentyl-propanoylamino)-N,1,1-trimethyl-N-(1-pyridin-4-yl-piperidin-4-yl)-2,3-dihydro-indene-5-carboxylic acid amide]
100	100		CN(C(=O)c1ccc2c(c1)C(NC(=O)c1cccc(Cl)c1Cl)CC2(C)C)C1CCN(c2ccncc2)CC1 (stereo not shown) [CC_H-19, 3-[(2,3-Dichloro-benzoyl)amino]-N,1,1-trimethyl-N-(1-pyridin-4-yl-piperidin-4-yl)-2,3-dihydro-indene-5-carboxylic acid amide]
99	104		CN(C(=O)c1ccc2c(c1)C(NC(=O)c1sccc1Cl)CC2(C)C)C1CCN(c2ccncc2)CC1 (stereo not shown) [CC_H-20, 3-Chloro-N-[3,3-dimethyl-6-[methyl-(1-pyridin-4-yl-piperidin-4-yl)-carbamoyl]-1,2-dihydro-inden-1-yl]-thiophene-2-carboxylic acid amide]
99		104	CN(C(=O)c1ccc2c(c1)C(NC(=O)c1cc(F)ccc1Cl)CC2(C)C)C1CCN(c2ccncc2)CC1 (stereo not shown) [CC_H-21, 3-[(2-Chloro-5-fluoro-benzoyl)amino]-N,1,1-trimethyl-N-(1-pyridin-4-yl-piperidin-4-yl)-2,3-dihydro-indene-5-carboxylic acid amide]
97	90		CN(C(=O)c1ccc2c(c1)C(NC(=O)c1cncnc1)CC2(C)C)C1CCN(c2ccncc2)CC1 (stereo not shown) [CC_H-22, N-[3,3-Dimethyl-6-[methyl-(1-pyridin-4-yl-piperidin-4-yl)-carbamoyl]-1,2-dihydro-inden-1-yl]-pyrimidine-5-carboxylic acid amide]
99	104		CN(C(=O)c1ccc2c(c1)C(NC(=O)c1ccccc1Cl)CC2(C)C)C1CCN(c2ccncc2)CC1 (stereo not shown) [CC_H-23, 3-[(2-Chloro-benzoyl)amino]-N,1,1-trimethyl-N-(1-pyridin-4-yl-piperidin-4-yl)-2,3-dihydro-indene-5-carboxylic acid amide]
100	105		CN(C(=O)c1ccc2c(c1)C(NC(=O)c1ccccc1Cl)CC2)C1CCN(c2ccncc2)CC1 (stereo not shown) [CC_H-24, 3-[(2-Chloro-benzoyl)amino]-N-methyl-N-(1-pyridin-4-yl-piperidin-4-yl)-2,3-dihydro-1H-indene-5-carboxylic acid amide]
98	104		CN(C(=O)c1ccc2c(c1)C(N(C)C(=O)c1cccc(Cl)c1Cl)CC2)C1CCN(c2ccncc2)CC1 (stereo not shown) [CC_H-25, 3-[(2,3-Dichloro-benzoyl)-methyl-amino]-N-methyl-N-(1-pyridin-4-yl-piperidin-4-yl)-2,3-dihydro-1H-indene-5-carboxylic acid amide]
100		103	CN(C(=O)c1ccc2c(c1)C(NC(=O)c1cc(F)ccc1Cl)CC2)C1CCN(c2ccncc2)CC1 (stereo not shown) [CC_H-26, 3-[(2-Chloro-5-fluoro-benzoyl)amino]-N-methyl-N-(1-pyridin-4-yl-piperidin-4-yl)-2,3-dihydro-1H-indene-5-carboxylic acid amide]
100		104	CN(C(=O)c1ccc2c(c1)C(N(C)C(=O)c1cc(F)ccc1Cl)CC2)C1CCN(c2ccncc2)CC1 (stereo not shown) [CC_H-27, 3-[(2-Chloro-5-fluoro-benzoyl)-methyl-amino]-N-methyl-N-(1-pyridin-4-yl-piperidin-4-yl)-2,3-dihydro-1H-indene-5-carboxylic acid amide]
99	103		CC(C)CC(=O)N(C)C1CCc2ccc(C(=O)N(C)C3CCN(c4ccncc4)CC3)cc21 (stereo not shown) [CC_H-28, N-Methyl-3-[methyl-(3-methyl-butanoyl)-amino]-N-(1-pyridin-4-yl-piperidin-4-yl)-2,3-dihydro-1H-indene-5-carboxylic acid amide]
99	103		CN(C(=O)c1ccc2c(c1)C(NC(=O)c1sccc1Cl)CC2)C1CCN(c2ccncc2)CC1 (stereo not shown) [CC_H-29, 3-Chloro-N-[6-[methyl-(1-pyridin-4-yl-piperidin-4-yl)-carbamoyl]-2,3-dihydro-1H-inden-1-yl]-thiophene-2-carboxylic acid amide]
99	104		CN(C(=O)c1ccc2c(c1)C(N(C)C(=O)c1sccc1Cl)CC2)C1CCN(c2ccncc2)CC1 (stereo not shown) [CC_H-30, 3-Chloro-N-methyl-N-[6-[methyl-(1-pyridin-4-yl-piperidin-4-yl)-carbamoyl]-2,3-dihydro-1H-inden-1-yl]-thiophene-2-carboxylic acid amide]
97	105		CN(C(=O)c1ccc2c(c1)C(N(C)C(=O)c1cnccc1C(F)(F)F)CC2)C1CCN(c2ccncc2)CC1 (stereo not shown) [CC_H-32, N-Methyl-N-[6-[methyl-(1-pyridin-4-yl-piperidin-4-yl)-carbamoyl]-2,3-dihydro-1H-inden-1-yl]-4-(trifluoromethyl)-pyridine-3-carboxylic acid amide]
98	104		CN(C(=O)c1ccc2c(c1)C(NC(=O)c1ccccc1Cl)CCO2)C1CCN(c2ccncc2)CC1 (stereo not shown) [CC_H-33, 4-[(2-Chloro-benzoyl)amino]-N-methyl-N-(1-pyridin-4-yl-piperidin-4-yl)-3,4-dihydro-2H-chromene-6-carboxylic acid amide]
99	104		O=C(NCCC1CCN(c2ccncc2)CC1)c1ccc2c(c1)C(NC(=O)c1ccccc1Cl)CC2 (stereo not shown) [CC_H-34, 3-[(2-Chloro-benzoyl)amino]-N-[2-(1-pyridin-4-yl-piperidin-4-yl)-ethyl]-2,3-dihydro-1H-indene-5-carboxylic acid amide]
97	104		CN(C(=O)c1ccc2c(c1)C(NC(=O)c1cccc(Cl)c1Cl)CCO2)C1CCN(c2ccncc2)CC1 (stereo not shown) [CC_H-35, 4-[(2,3-Dichloro-benzoyl)amino]-N-methyl-N-[1-pyridin-4-yl-piperidin-4-yl]-3,4-dihydro-2H-chromene-6-carboxylic acid amide]
99	104		O=C(NCCC1CCN(c2ccncc2)CC1)c1ccc2c(c1)C(NC(=O)c1cc(F)ccc1Cl)CC2 (stereo not shown) [CC_H-36, 3-[(2-Chloro-5-fluoro-benzoyl)amino]-N-[2-(1-pyridin-4-yl-piperidin-4-yl)-ethyl]-2,3-dihydro-1H-indene-5-carboxylic acid amide]
93	104		O=C(NCCC1CCN(c2ccncc2)CC1)c1ccc2c(c1)C(NC(=O)c1cnccc1C(F)(F)F)CC2 (stereo not shown) [CC_H-37, N-[6-[2-(1-Pyridin-4-yl-piperidin-4-yl)-ethyl-carbamoyl]-2,3-dihydro-1H-inden-1-yl]-4-(trifluoromethyl)-pyridine-3-carboxylic acid amide]
99	104		CN(C(=O)c1ccc2c(c1)C(NC(=O)C1CCCCC1)CCO2)C1CCN(c2ccncc2)CC1 (stereo not shown) [CC_H-38, 4-(Cyclohexanecarbonylamino)-N-methyl-N-(1-pyridin-4-yl-piperidin-4-yl)-3,4-dihydro-2H-chromene-6-carboxylic acid amide]
99		104	CC(C)CC(=O)NC1CCOc2ccc(C(=O)N(C)C3CCN(c4ccncc4)CC3)cc21 (stereo not shown) [CC_H-39, N-Methyl-4-(3-methyl-butanoylamino)-N-(1-pyridin-4-yl-piperidin-4-yl)-3,4-dihydro-2H-chromene-6-carboxylic acid amide]
95	100		CN(C(=O)c1ccc2c(c1)C(NC(=O)c1sccc1Cl)CCO2)C1CCN(c2ccncc2)CC1 (stereo not shown) [CC_H-40, 4-[(3-Chloro-thiophene-2-carbonyl)amino]-N-methyl-N-(1-pyridin-4-yl-piperidin-4-yl)-3,4-dihydro-2H-chromene-6-carboxylic acid amide]
100	104		CC(C)CC(=O)NC1CCc2ccc(C(=O)N(C)C3CCN(c4ccncc4)CC3)cc21 (stereo not shown) [CC_H-41, N-Methyl-3-(3-methyl-butanoylamino)-N-(1-pyridin-4-yl-piperidin-4-yl)-2,3-dihydro-1H-indene-5-carboxylic acid amide]
